One data set addresses CYP3A4 (Homo sapiens, UniProt P08684). Briefly: in vitro. Particulars: probe testosterone.
The next data set has as its target Histone deacetylase 2 (Homo sapiens, UniProt Q92769).
Another data set addresses Histone deacetylase 1 (Homo sapiens, UniProt Q13547). Put plainly: Inhibition of HDAC1 (unknown origin) using Ac-peptide as substrate preincubated for 15 mins followed by substrate addition by fluorescence assay.
The test system of another data set is HCT-116. Briefly: cells. Particulars: Homo sapiens, HCT-116, 72 h.
Data set [1] has as its target T1, Protein deacetylase HDAC6 (Homo sapiens, UniProt Q9UBN7).
T1 sequence (Q9UBN7 whole entry): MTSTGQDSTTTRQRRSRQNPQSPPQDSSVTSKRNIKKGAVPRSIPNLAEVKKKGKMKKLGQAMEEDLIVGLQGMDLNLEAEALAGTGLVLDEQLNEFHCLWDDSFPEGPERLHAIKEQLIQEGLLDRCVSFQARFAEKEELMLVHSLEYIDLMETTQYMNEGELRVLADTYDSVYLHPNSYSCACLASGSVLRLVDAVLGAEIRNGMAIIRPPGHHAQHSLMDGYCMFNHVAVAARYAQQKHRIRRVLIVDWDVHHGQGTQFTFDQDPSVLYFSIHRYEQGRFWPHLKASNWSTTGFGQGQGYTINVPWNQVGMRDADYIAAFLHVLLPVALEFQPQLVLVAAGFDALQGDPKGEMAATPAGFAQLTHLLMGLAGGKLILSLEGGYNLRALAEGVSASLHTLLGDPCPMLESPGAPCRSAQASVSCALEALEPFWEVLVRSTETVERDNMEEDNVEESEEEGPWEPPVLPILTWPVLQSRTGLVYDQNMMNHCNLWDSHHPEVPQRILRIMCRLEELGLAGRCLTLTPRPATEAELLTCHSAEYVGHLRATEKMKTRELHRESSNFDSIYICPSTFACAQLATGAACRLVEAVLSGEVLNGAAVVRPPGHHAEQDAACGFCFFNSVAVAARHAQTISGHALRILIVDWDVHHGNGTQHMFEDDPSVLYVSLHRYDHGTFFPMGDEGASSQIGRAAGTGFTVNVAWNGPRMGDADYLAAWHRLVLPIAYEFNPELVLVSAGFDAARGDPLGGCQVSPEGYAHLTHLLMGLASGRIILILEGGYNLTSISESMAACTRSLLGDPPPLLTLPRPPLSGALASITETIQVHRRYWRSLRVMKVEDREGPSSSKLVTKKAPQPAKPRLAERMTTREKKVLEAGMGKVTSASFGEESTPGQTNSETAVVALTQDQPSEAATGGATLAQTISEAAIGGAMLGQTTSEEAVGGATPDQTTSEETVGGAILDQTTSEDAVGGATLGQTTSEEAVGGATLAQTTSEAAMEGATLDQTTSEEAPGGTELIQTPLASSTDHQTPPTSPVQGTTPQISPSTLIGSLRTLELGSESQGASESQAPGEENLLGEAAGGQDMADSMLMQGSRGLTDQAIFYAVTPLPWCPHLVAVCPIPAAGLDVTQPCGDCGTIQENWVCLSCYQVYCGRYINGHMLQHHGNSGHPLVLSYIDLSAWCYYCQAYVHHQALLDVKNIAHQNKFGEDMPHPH
Briefly: Inhibition of HDAC6 (unknown origin) using Ac-peptide as substrate preincubated for 15 mins followed by substrate addition by fluorescence assay.

In data set [2] the test system is MGC-803. Put plainly: cells. Particulars: Homo sapiens, MGC-803, 72 h.
The target of a further data set is Histone deacetylase 5 (Homo sapiens, UniProt Q9UQL6). Put plainly: Inhibition of HDAC5 (unknown origin) using Ac-peptide as substrate preincubated for 15 mins followed by substrate addition by fluorescence assay.
A further data set has as its target CYP2D6 (Homo sapiens, UniProt P10635). Put plainly: in vitro. Particulars: probe dextromethorphan.
Data set [3] relates to MGC-803. Put plainly: Antiproliferative activity against human MGC-803 cells assessed as reduction in cell viability at 10 uM after 72 hrs by CellTiter-Glo assay. The format is functional. (In ATP-based viability assays light output follows the ATP content of the culture.)
The target of data set [4] is Lysine-specific histone demethylase 1A (Homo sapiens, UniProt O60341). Put plainly: Inhibition of recombinant LSD1 (157 to 852 residues) (unknown origin) expressed in Escherichia coli BL21 (DE) using H3K4me2 as substrate by amplex red assay.
The target in a further data set is CYP2C9 (Homo sapiens, UniProt P11712). Put plainly: in vitro. Particulars: probe diclofenac.
For data set [5], the system named is MGC-803. Put plainly: Induction of apoptosis in human MGC-803 cells assessed as apoptotic cells at 5 uM incubated for 48 hrs by annexin V-FITC and PI staining based flowcytometry analysis (Rvb =4.3 %). The format is functional.
For the next data set, the target named is T2, CYP1A2 (Homo sapiens, UniProt P05177).
T2 sequence (P05177 whole entry): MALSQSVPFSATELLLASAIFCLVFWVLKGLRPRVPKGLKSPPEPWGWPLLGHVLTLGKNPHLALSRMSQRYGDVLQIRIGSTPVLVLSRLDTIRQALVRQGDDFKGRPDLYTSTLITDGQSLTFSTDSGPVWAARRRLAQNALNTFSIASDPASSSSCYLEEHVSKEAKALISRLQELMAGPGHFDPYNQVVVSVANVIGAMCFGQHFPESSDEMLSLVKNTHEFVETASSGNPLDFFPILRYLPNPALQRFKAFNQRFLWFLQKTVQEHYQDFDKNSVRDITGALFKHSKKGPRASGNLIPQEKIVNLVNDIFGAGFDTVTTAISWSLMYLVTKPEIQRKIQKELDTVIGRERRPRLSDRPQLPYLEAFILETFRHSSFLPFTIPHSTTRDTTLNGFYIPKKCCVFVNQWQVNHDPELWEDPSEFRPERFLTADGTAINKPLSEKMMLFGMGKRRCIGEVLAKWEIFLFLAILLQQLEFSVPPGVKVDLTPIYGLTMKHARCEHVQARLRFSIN
Briefly: in vitro. Particulars: probe phenacetin.

Chain of Histone deacetylase 2 (Q92769 whole entry): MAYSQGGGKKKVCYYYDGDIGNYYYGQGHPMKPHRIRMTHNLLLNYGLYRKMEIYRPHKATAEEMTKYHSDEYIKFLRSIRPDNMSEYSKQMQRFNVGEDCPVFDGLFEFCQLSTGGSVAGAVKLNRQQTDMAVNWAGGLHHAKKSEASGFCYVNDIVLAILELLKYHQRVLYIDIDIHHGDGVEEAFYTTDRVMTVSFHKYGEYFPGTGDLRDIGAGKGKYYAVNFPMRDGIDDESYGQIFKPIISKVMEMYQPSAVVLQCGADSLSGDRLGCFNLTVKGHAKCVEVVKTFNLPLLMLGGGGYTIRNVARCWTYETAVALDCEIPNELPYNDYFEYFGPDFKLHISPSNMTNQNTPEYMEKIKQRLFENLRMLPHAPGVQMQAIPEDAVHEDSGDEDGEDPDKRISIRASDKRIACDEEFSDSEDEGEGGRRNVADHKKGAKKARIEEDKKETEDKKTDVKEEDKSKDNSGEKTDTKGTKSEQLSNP
Chain of Histone deacetylase 5 (Q9UQL6 whole entry): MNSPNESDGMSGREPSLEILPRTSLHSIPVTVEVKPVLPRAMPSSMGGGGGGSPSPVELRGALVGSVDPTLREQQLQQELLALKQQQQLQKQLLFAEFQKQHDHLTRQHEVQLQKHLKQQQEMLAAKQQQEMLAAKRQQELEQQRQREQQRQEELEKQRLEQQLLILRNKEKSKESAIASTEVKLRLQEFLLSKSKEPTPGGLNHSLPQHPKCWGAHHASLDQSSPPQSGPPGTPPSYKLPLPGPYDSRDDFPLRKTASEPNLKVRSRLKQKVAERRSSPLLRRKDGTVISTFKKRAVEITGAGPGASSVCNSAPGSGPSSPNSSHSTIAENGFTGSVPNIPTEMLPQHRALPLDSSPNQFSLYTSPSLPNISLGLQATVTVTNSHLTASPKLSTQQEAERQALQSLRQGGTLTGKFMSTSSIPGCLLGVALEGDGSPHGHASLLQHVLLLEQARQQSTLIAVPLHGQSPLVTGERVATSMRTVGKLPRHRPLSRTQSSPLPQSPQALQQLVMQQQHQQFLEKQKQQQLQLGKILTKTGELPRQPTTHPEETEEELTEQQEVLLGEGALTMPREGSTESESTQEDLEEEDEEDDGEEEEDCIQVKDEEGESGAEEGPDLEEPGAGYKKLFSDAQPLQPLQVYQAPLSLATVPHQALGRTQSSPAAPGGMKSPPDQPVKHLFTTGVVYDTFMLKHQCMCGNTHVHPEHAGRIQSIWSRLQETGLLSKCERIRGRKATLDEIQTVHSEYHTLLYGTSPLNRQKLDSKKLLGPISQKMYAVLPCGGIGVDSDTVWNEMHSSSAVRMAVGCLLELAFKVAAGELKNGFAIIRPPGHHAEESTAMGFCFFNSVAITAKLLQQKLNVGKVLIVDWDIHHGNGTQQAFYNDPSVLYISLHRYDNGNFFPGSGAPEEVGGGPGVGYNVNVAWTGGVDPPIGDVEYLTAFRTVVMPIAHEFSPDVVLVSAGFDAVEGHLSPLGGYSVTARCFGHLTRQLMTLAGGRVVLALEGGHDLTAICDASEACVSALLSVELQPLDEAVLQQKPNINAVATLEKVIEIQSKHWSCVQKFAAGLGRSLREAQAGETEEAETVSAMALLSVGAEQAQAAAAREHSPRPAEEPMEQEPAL
Chain of Histone deacetylase 1 (Q13547 whole entry): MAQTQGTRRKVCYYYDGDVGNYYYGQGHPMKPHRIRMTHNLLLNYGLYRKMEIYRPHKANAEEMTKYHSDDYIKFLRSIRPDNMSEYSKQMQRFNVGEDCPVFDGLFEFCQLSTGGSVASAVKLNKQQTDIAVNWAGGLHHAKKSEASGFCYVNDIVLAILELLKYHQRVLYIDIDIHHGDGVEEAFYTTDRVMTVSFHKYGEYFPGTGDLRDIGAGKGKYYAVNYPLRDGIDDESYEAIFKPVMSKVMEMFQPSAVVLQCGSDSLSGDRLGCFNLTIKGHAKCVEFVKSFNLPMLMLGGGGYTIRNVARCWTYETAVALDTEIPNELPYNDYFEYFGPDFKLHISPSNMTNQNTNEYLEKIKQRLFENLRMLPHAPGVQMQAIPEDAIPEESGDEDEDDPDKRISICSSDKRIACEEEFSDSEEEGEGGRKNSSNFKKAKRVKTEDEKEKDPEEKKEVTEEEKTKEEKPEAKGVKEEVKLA
Chain of CYP2D6 (P10635 whole entry): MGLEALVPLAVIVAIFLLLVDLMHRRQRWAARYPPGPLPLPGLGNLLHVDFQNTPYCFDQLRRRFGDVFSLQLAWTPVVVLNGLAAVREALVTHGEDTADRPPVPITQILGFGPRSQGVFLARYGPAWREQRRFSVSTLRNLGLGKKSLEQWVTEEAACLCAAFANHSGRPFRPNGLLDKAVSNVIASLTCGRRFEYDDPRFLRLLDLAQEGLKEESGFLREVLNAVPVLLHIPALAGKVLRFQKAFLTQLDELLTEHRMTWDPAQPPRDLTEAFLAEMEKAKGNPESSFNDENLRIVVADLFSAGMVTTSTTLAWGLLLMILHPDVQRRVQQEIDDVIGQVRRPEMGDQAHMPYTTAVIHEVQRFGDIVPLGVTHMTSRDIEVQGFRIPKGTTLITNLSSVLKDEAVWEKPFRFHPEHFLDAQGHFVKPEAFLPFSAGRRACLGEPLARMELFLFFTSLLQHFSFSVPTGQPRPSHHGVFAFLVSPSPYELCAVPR
Chain of CYP2C9 (P11712 whole entry): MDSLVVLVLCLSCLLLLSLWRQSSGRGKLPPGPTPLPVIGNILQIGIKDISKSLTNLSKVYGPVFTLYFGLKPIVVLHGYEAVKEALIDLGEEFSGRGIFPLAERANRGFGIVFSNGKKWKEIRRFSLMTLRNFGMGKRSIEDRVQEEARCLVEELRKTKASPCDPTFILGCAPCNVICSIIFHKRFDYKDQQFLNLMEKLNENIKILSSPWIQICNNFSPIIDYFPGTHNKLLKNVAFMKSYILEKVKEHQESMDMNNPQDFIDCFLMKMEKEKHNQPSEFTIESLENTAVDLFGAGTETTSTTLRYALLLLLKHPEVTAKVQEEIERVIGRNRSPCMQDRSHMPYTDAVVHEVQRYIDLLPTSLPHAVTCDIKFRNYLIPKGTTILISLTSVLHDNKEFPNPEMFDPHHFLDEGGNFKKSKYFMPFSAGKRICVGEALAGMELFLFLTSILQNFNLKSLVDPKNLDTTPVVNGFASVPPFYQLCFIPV
Chain of CYP3A4 (P08684 whole entry): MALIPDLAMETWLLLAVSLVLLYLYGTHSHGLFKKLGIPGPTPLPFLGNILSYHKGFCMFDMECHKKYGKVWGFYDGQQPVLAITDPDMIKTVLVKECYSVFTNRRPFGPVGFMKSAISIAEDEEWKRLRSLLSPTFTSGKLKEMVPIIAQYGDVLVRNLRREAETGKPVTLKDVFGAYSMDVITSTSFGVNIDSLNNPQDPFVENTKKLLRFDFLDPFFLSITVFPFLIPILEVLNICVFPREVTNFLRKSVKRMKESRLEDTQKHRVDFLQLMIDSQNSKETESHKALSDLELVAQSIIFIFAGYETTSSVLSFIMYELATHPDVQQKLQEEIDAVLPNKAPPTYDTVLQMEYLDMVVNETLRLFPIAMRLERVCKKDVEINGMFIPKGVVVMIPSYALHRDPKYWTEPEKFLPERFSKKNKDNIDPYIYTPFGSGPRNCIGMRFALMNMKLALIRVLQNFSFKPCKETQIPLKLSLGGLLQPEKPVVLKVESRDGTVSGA

Usually inhibition stands for the drop in the measured response relative to a control, in per cent. Consider `CC(=O)N1CCN(c2ccc(OCC3COC(Cn4ccnc4)(c4ccc(Cl)cc4Cl)O3)cc2)CC1` (stereo unspecified) [KETOCONAZOLE], for which, on CYP3A4, at 0.1 µM the inhibition was 65.9%.
As usually defined, the IC50 is the concentration that gives 50% inhibition. Turning to `O=C(NO)c1cccc(/C=C/c2ccnc(-c3cc(F)ccc3O)c2)c1`, the IC50 against Histone deacetylase 2 was 2060 nM; against Histone deacetylase 1, 1510 nM; in the data set with HCT-116, 3890 nM; in data set [1], 400 nM; with MGC-803 [2], 2710 nM; on Histone deacetylase 5 it was more than 10000 nM.
In turn, `C=C[C@H]1C[N@@]2CC[C@H]1C[C@@H]2[C@@H](O)c1ccnc2ccc(OC)cc12` [QUINIDINE] registered an inhibition at 1 µM against CYP2D6 of 91.3%.
For `N/C(=N\O)c1cccc(/C=C/c2ccnc(-c3cc(F)ccc3O)c2)c1`, the inhibition at 10 µM in the data set on MGC-803 [3] was found to be 35.3%.
Turning to `O=C(NO)c1cccc(/C=C/c2ccnc(-c3ccccc3O)c2)c1`, the IC50 against Histone deacetylase 2 is 1870 nM; against Histone deacetylase 1, 1470 nM; in the data set on HCT-116, 3360 nM; in data set [1] it was 390 nM; in data set [4], 2260 nM; in the data set with MGC-803 [2], 2810 nM. This compound returned an IC50 at Histone deacetylase 5 of more than 10000 nM.
Compound `Nc1ccc(S(=O)(=O)Nc2ccnn2-c2ccccc2)cc1` [SULFAPHENAZOLE] displayed an inhibition at 1 µM on CYP2C9 of 79.9%.
As for `O=C(CCCCCCC(=O)Nc1ccccc1)NO` [VORINOSTAT], the IC50 is 1850 nM with HCT-116 and 1540 nM with MGC-803 [2]. Also, in the data set on MGC-803 [5], the Activity stood at 73.8%.
On to `O=c1cc(-c2ccccc2)oc2c1ccc1ccccc12` [ALPHA-NAPHTHOFLAVONE], for which the inhibition at 0.2 µM against CYP1A2 was determined as 90.9%.

The record behind these values is ChEMBL document CHEMBL5038581, “Design, synthesis, and biological evaluation of novel dual inhibitors targeting lysine specific demethylase 1 (LSD1) and histone deacetylases (HDAC) for treatment of gastric cancer” (Eur J Med Chem, 2021).
